Laboratory results: the supplement of paper PMC10307832

Assays:
Test in all cases: relative viability (nuclei count vs DMSO), 5 days (fraction); higher = more cells survive
[1] = compound: CC1=NN=C(O1)C2=NN=C(C=C2)N3CCC(CC3)OC4=C(C=CC(=C4)F)Cl + CC(=O)Nc1cccc(-n2c(=O)n(C3CC3)c(=O)c3c(Nc4ccc(I)cc4F)n(C)c(=O)c(C)c32)c1 [Trametinib] (partner 0.02 µM)
How it was run: (§1)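 Medians of duplicate plates are given as relative viability. That measure is the nuclei count in treated wells divided by the count in vehicle wells. Counts were taken on 4× images of lung cancer cell lines in 1536-well plates, 5 days after pin-tool dosing the day after seeding with one drug alone or a fixed anchor-drug dose plus five library-drug doses (not always all listed) in √10 steps.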

[2] = compound: CC1=NN=C(O1)C2=NN=C(C=C2)N3CCC(CC3)OC4=C(C=CC(=C4)F)Cl + O=C(CCCCCCC(=O)Nc1ccccc1)NO [Vorinostat] (partner 1 µM)
How it was run: as §1

[3] = compound: CC(C)C[C@@H](C(=O)N[C@H](C(=O)OC1CCCC1)c1ccccc1)[C@H](O)C(=O)NO [Tosedostat] + N=C(N)NC(=N)NCCc1ccccc1 [Phenformin] (partner 250 µM)
How it was run: as §1

[4] = compound: CC1=NN=C(O1)C2=NN=C(C=C2)N3CCC(CC3)OC4=C(C=CC(=C4)F)Cl + CS(=O)(=O)N1CCN(Cc2cc3nc(-c4cccc5[nH]ncc45)nc(N4CCOCC4)c3s2)CC1 [Pictilisib] (partner 1 µM)
How it was run: as §1

| Cell Line | relative viability ([1]; first compound 0.253 µM) | relative viability ([1]; first compound 0.8 µM) | relative viability ([1]; first compound 2.53 µM) | relative viability ([1]; first compound 8 µM) | relative viability ([2]; first compound 0.253 µM) | relative viability ([2]; first compound 0.8 µM) | relative viability ([2]; first compound 2.53 µM) | relative viability ([2]; first compound 8 µM) | relative viability ([3]; first compound 0.02 µM) | relative viability ([3]; first compound 0.06325 µM) | relative viability ([3]; first compound 0.2 µM) | relative viability ([3]; first compound 0.6325 µM) | relative viability ([3]; first compound 2 µM) | relative viability ([4]; first compound 0.253 µM) | relative viability ([4]; first compound 0.8 µM) | relative viability ([4]; first compound 2.53 µM) | relative viability ([4]; first compound 8 µM) |
| --- | --- | --- | --- | --- | --- | --- | --- | --- | --- | --- | --- | --- | --- | --- | --- | --- | --- |
| NCI-H2405 | 0.526 | 0.451 | 0.432 | 0.411 | 0.583 | 0.556 | 0.535 | 0.455 | 0.398 | 0.407 | 0.397 | 0.368 | 0.359 | 0.401 | 0.523 | 0.4 | 0.385 |
| NCI-H3122 | 0.173 | 0.224 | 0.224 | 0.232 | 0.484 | 0.484 | 0.443 | 0.345 | 0.415 | 0.385 | 0.362 | 0.368 | 0.292 | 0.643 | 0.593 | 0.648 | 0.642 |
| PC-3 [JPC-3] | 0.634 | 0.684 | 0.668 | 0.748 | 0.703 | 0.526 | 0.797 | 0.478 | 0.468 | 0.463 | 0.491 | 0.442 | 0.408 | 0.602 | 0.677 | 0.84 | 0.654 |
| PC-14 | 0.732 | 0.658 | 0.582 | 0.428 | 0.695 | 0.543 | 0.714 | 0.567 | 0.653 | 0.54 | 0.452 | 0.448 | 0.38 | 0.603 | 0.735 | 0.781 | 0.702 |
| RERF-LC-KJ | 0.665 | 0.593 | 0.595 | 0.612 | 0.347 | 0.467 | 0.453 | 0.493 | 0.406 | 0.395 | 0.461 | 0.364 | 0.312 | 0.561 | 0.529 | 0.482 | 0.454 |
| SK-LU-1 | 0.47 | 0.417 | 0.531 | 0.407 | 0.675 | 0.629 | 0.662 | 0.589 | 0.598 | 0.535 | 0.52 | 0.428 | 0.525 | 0.518 | 0.508 | 0.529 | 0.42 |
| SK-MES-1 | 0.486 | 0.573 | 0.507 | 0.501 | 0.781 | 0.765 | 0.766 | 0.702 | 0.696 | 0.686 | 0.663 | 0.568 | 0.54 | 0.263 | 0.377 | 0.341 | 0.384 |
| SW 1573 | 0.512 | 0.43 | 0.445 | 0.306 | 0.717 | 0.421 | 0.434 | 0.251 | 0.417 | 0.364 | 0.302 | 0.336 | 0.342 | 0.527 | 0.415 | 0.473 | 0.383 |
| UMC-11 | 0.457 | 0.531 | 0.33 | 0.43 | 0.361 | 0.351 | 0.431 | 0.383 | 0.353 | 0.328 | 0.298 | 0.282 | 0.278 | 0.723 | 0.65 | 0.797 | 0.684 |
